Test results as given in US4299834A, “8-Phenyl-purines and pharmaceutical compositions containing same” (Boehringer Ingelheim Gesellschaft mit beschrankter Haftung, priority 1979, dated 1981).

Legend:
white mice = experiment: Acute Toxicity in white mice after oral administration; format: in vivo; settings: single dose of 300 mg/kg, observation time 14 days
Procedure: (§1) The acute toxicity of the test compounds was determined in white mice after oral administration of a single dose of 300 mg/kg (observation time: 14 days).

[1] = as above; format: in vivo; settings: mouse, in vivo, single dose of 300 mg/kg, observation time 14 days
Procedure: as §1

Row | Compound | animals died (white mice) | LD50 at 336 h [1] [mg/kg]
1 | COc1ccc(-c2nc3ncncc3[nH]2)c(OC)c1 [A, 8-(2,4-Dimethoxy-phenyl)-purine] | 0 out of 6 | > 300
2 | COc1cc([S+](C)[O-])ccc1-c1nc2ncncc2[nH]1 (stereo not drawn) [H, 8-(2-Methoxy-4-methylsulfinyl-phenyl)-purine] | 3 out of 6 | ~300
3 | COc1cc(SC)ccc1-c1nc2ncncc2[nH]1 [B, 8-(2-Methoxy-4-methylmercapto-phenyl)-purine] | 2 out of 6 | > 300
4 | COc1cc(Cl)ccc1-c1nc2ncncc2[nH]1 [G, 8-(4-Chloro-2-methoxy-phenyl)-purine] | 1 out of 6 | > 300
5 | COc1ccc(-c2nc3ncncc3[nH]2)c(OCCSC)c1 [C, 8-[4-Methoxy-2-(2-methylmercapto-ethoxy)-phenyl]purine] | 0 out of 6 | > 300
6 | COc1ccc(-c2nc3ncncc3[nH]2)c(OCC[S+](C)[O-])c1 (stereo not drawn) [D, 8-[4-Methoxy-2-(2-methylsulfinyl-ethoxy)-phenyl]purine] | 0 out of 6 | > 300
